Measurements taken from US20240041898A9, “NEUROSTEROIDS AND ENANTIOMERS THEREOF FOR THE PREVENTION AND TREATMENT OF NEURODEGENERATIVE CONDITIONS” (priority 2019, published 2024).
Where “and” joins values, the source holds several entries; their conditions need not be identical. Identical values can stand only once.

Tested on: LC3-II
Test: Ex vivo pressure-loaded retinas, Western blot of LC3-II
Assay type: cell-based, rat
Settings: ex vivo; for LC3-II expression (FIG. 2Q), Average / LC3-II expression (FIG. 2Q), individual experiments 1-4: relative units, control = 1.00, normalized to β-actin
Method: Rat ex vivo Eyecup Preparation—Rat ex vivo eyecups were prepared from 28-32 day old male Sprague-Dawley rats (Charles River Laboratories International Inc., Wilmington, MA). The anterior half of the enucleated eyes was carefully removed to make eyecup preparations. Eyecups were placed at the bottom of a 100 ml glass beaker filled with aCSF (artificial cerebrospinal fluid) containing (in mM): 124 NaCl, 5 KCl, 2 MgSO4, 2 CaCl2, 1.25 NaH2PO4, 22 NaHCO3, and 10 glucose, and incubated at 30° C. for 24 hours using a closed pressure-loading system (FIG. 1C). pH was maintained at 7.35 to 7.40. In the closed-pressure system, a glass beaker with the eyecup was placed at the bottom of an acrylic pressure chamber (2,000 ml volume). A 95% O2-5% CO2 gas mixture was delivered through disposable plastic tubing with an infusion valve and a control dial on the lid of the pressure chamber and an air filter (Cat #SLGP033RS, Merck Millipore, Billerica, MA). The plastic tubing delivering the gas terminated 1 cm above the bottom of the beaker.
Acutely prepared eyecups were incubated in gassed aCSF for at least 1 h at 30° C. before pressure loading. In some experiments, AlloP (1 μM), ent-AlloP (1 μM), and 3-MA (10 mM) were dissolved in aCSF at the time of experiment and administered by bath perfusion. Eyecup preparations were treated with these drugs for 1 h at 30° C. before pressure loading. For pressure loading, the 95% O2-5% CO2 gas mixture was infused until the pressure reading given by a manometer reached the appropriate level. The pressure was then locked by adjusting the control dial of the effusion valve, and monitored continuously for 24 h at 30° C.
Western Blot Analysis—At the end of each experiment, the posterior segments of the eye were placed on a flat cutting surface and immersed in ice-cold aCSF. With a surgical blade, the retina was carefully and gently detached from the sclera with a fine forceps. The isolated retinas were frozen at −80° C. Retinas were then homogenized in lysis buffer solution (CelLytic MT; Sigma-Aldrich, Inc.) with protease inhibitor cocktail (Sigma-Aldrich, Inc.), prepared according to the manufacturer's instructions. The tissue extracts were ultrasonicated and clarified by centrifugation at 12,000 g for 20 minutes at 4° C. The protein concentrations in supernatants were assayed (Quant-iT assay kit; Invitrogen Corp., Carlsbad, CA). Twenty micrograms of retinal extract were subjected to SDS polyacrylamide gel electrophoretic analysis. The proteins were then transferred to a PVDF. Immunoblots by polyclonal rabbit anti-LC3B antibody (MBL Life Science) or anti-SQSTMl/p62 mouse monoclonal antibody (Abcam) were visualized using WesternBreeze Chemiluminescent Immunodetection system (Invitrogen) with the exposure time to autoradiograph film (MXJB Plus; Kodak, Rochester, NY) adjusted to avoid over- or undersaturation. Precision Plus Protein™ Western Standards (Bio-Rad, Hercules, CA) followed by Precision Protein™ strep Tactin-AP conjugate (Bio-Rad) was used for a molecular marker of LC3. MagicMark™ XP Western Protein Standard (Invitrogen, Carlsbad, CA) was used for a molecular marker of p62. Immunoblot data are normalized to β-actin levels in the same sample.
The density of Western blot bands was quantified using Image-Pro Plus software. Quantification was adjusted to protein expression at 10 mmHg after normalization to the β-actin band at each pressure, and the relative gray-scale value was calculated by densitometric analysis of the obtained bands. At least four independent experiments were performed for each condition, and the results are presented as relative units numerically. Differences in expression levels were evaluated using Wilcoxon Rank-Sum Test, Tukey's or Dunnett's multiple comparison test. Sample numbers were four to five per each experimental condition.

## CC(=O)[C@H]1CC[C@H]2[C@@H]3CC[C@H]4C[C@H](O)CC[C@]4(C)[C@H]3CC[C@]12C [AlloP, allopregnanolone]
Average of 4
  LC3-II expression (FIG. 2Q), Average: 3.62
Single values
  LC3-II expression (FIG. 2Q), individual experiments 1-4: 4.31 and 3.47 and 3.34 (2×)

## CC(=O)[C@@H]1CC[C@@H]2[C@H]3CC[C@@H]4C[C@@H](O)CC[C@@]4(C)[C@@H]3CC[C@]21C [ent-AlloP, ent-allopregnanolone]
75 mmHg, 1 μM ent-AlloP, 10 mM 3-MA, relative, ent-AlloP + 3-MA = 1.00, Average of 4
  LC3 expression after 3-MA treatment (FIG. 3F), Average: 9.00
75 mmHg, 1 μM ent-AlloP, 10 mM 3-MA, relative, ent-AlloP + 3-MA = 1.00, single values
  LC3 expression after 3-MA treatment (FIG. 3F), individual experiments 1-4: 11.20 and 8.89 and 7.78 and 8.11
Average of 4
  LC3-II expression (FIG. 2Q), Average: 5.25
Single values
  LC3-II expression (FIG. 2Q), individual experiments 1-4: 6.14 and 5.17 and 4.48 and 5.22
